Reference: ChEMBL document CHEMBL4033771, “Development of Potent Myostatin Inhibitory Peptides through Hydrophobic Residue-Directed Structural Modification” (ACS Med Chem Lett, 2017)
Active and inactive are the calls of the source. No cut-off for these calls is given here. Where a SMILES comes first, the peptide text is derived from it. The star is where a group is joined. Acetyl(2-naphthyloxy) = O=C(COc1ccc2ccccc2c1)*

Experiments:
Mus musculus [1] = assay: Increase in tibialis anterior muscle weight in wild type ICR mouse at 0.75 mM, im administered on day 0 and 14 measured on day 42 relative to control; format: functional
Mus musculus [2] = assay: Increase in gastrocnemius muscle weight in wild type ICR mouse at 0.75 mM, im administered on day 0 and 14 measured on day 42 relative to control; format: functional
Mus musculus [3] = assay: Increase in tibialis anterior muscle weight in mdx mouse at 0.75 mM, im administered on day 0 and 14 measured on day 42 relative to control; format: functional
Mus musculus [4] = assay: Increase in gastrocnemius muscle fiber size in mdx mouse at 0.75 mM, im administered on day 0 and 14 measured on day 42 by Hematoxylin and Eosin staining based assay; format: functional, organism-based
Mus musculus [5] = assay: Increase in tibialis anterior muscle weight in wild type mouse at 20 nmol, im after 28 days relative to control; format: functional
Mus musculus [6] = assay: Increase in tibialis anterior muscle weight in caveolin 3-deficient limb gridle muscular destrophy 1C mouse model at 20 nmol, im after 28 days relative to control; format: functional

| SMILES | Activity (Mus musculus [1]) | Activity (Mus musculus [2]) | Activity (Mus musculus [3]) | Activity (Mus musculus [4]) | Activity (Mus musculus [5]) [%] | Activity (Mus musculus [6]) [%] |
| --- | --- | --- | --- | --- | --- | --- |
| CC[C@H](C)[C@H](NC(=O)[C@H](CCCNC(=N)N)NC(=O)[C@H](CO)NC(=O)[C@H](Cc1ccc(O)cc1)NC(=O)[C@H](CCCNC(=N)N)NC(=O)[C@@H](NC(=O)[C@H](CC(N)=O)NC(=O)[C@H](CCC(N)=O)NC(=O)[C@H](CCCNC(=N)N)NC(=O)COc1ccc2ccccc2c1)[C@@H](C)O)C(=O)N[C@@H](CCC(=O)O)C(=O)N[C@@H](Cc1c[nH]c2ccccc12)C(=O)N[C@H](C(=O)N[C@@H](CCCCN)C(=O)N[C@H](C(=O)N[C@@H](CCC(N)=O)C(=O)N[C@H](C(=O)N[C@H](C(=O)N[C@@H](CO)C(=O)N[C@@H](CCCCN)C(=O)N[C@@H](CC(C)C)C(=O)N[C@@H](CCCNC(=N)N)C(=O)N[C@@H](CC(C)C)C(N)=O)[C@@H](C)CC)[C@@H](C)CC)[C@@H](C)CC)[C@@H](C)CC ({Acetyl(2-naphthyloxy)}-RQNTRYSRIEWIKIQIISKLRL-NH2) | 10 - 34% | 11 - 35% | 10 - 19% | Active | – | – |
| CC[C@H](C)[C@H](NC(=O)[C@H](C)NC(=O)[C@H](CCC(=O)O)NC(=O)[C@@H](NC(=O)[C@H](CCCNC(=N)N)NC(=O)[C@H](CO)NC(=O)[C@H](Cc1ccc(O)cc1)NC(=O)[C@H](CCCNC(=N)N)NC(=O)[C@@H](NC(=O)[C@H](CC(N)=O)NC(=O)[C@H](CCC(N)=O)NC(=O)[C@H](CCCNC(=N)N)NC(=O)[C@H](Cc1c[nH]c2ccccc12)NC(=O)[C@H](C)NC(=O)[C@@H](N)CS)[C@@H](C)O)[C@@H](C)CC)C(=O)N[C@@H](CCCCN)C(=O)N[C@H](C(=O)N[C@@H](CCC(N)=O)C(=O)N[C@H](C(=O)N[C@@H](CC(C)C)C(=O)N[C@@H](CO)C(=O)N[C@@H](CCCCN)C(=O)N[C@@H](CC(C)C)C(=O)N[C@@H](CCCNC(=N)N)C(=O)N[C@@H](CC(C)C)C(=O)N[C@@H](CCC(=O)O)C(=O)N[C@H](C(=O)N[C@@H](C)C(=O)N1CCC[C@H]1C(N)=O)[C@@H](C)O)[C@@H](C)CC)[C@@H](C)CC (H-CAWRQNTRYSRIEAIKIQILSKLRLETAP-NH2) | – | – | – | – | 10.6 | 20.6 |
